Results published in US7109329B2, “Neurologically active compounds and compounds with multiple activities” (priority 1988, dated 2006).

Test: Activities and properties of the compounds (Table III codes listed as Specific Properties in Table IV)
Details: not given
From the text: Certain of the compounds produce a profound hypothermia, but without anesthetizing. […] Table III, following, sets forth a list of the other properties of these guanidino compounds, which arise from their alpha-adrenergic agonist activity, combined with any inherent activity of the reactants chosen to achieve the final compound.
Except for items numbered 22 and 24–28 in Table III, substantially all of the guanidino compounds of this invention, as a result of their structure-activity relationship, are potent with respect to all of the above activities. However, as would be expected, various compounds have different, higher levels of, activities and properties which are listed as “Specific Properties”, with the Compounds numbered, in Table IV, below, according to the numbers in Tables I and II.

Compound	Specific Properties
3-(Guanidinoacetoxy)-estrone [Compound 148]	27
3-(PGE2carbonyl)-3-estrone ester [Compound 156]	27 (some agonist activity)
1,2-Bis(theophylline-7-acetamido)-ethane [Compound 164]	3, 15, anesthesia antagonist

Same assay, conditions: codes of Table III; […]

Compound	Specific Properties
4-4′-(1,2-Diethyl-1,2-ethenediyl)-4-guanidinoacetoxyphenyl-4′-(6-hydroxy-2,5,7,8-tetramethylchroman-2-carbonyl)-phenol ester [Compound 143]	27 (Estrogenic antagonist (breast cancer treatment))
CC(=O)[C@@]1(OC(=O)CNC(=N)N)CCC2C3C=C(Cl)C4=CC(=O)C5C[C@@H]5C4(C)C3CCC21C (stereo partly shown) [Compound 129, 6-Chloro-1,2,Dihydro-17-guanidinoacetoxy-3′H-cyclopropa[1,2]pregna-1,4,6-triene-3,20-dione]	26 (Androgenic antagonist)
N-[(6-PGE1carbonyl)-2,5,7,8-tetramethylchroman-2-carboxamido]-1-aminophthlazine [Compound 153]	6–11 (anti-impotence)
N-(PGE1carboxamido)-1-aminophthalazine [Compound 152]	6–11 (anti-impotence)
C[N+](C)(C)CCOC(=O)CNC(=N)N [Compound 32]	1, 15, cholinergic
N-(2,6-Dichlorbenzylidene)-3-(5-hydroxyindole)ethylamine [Compound 78]	5
2-(2,6-Diisopropylanilino)-2-methyleneimidazole [Compound 101]	adrenergic antagonist
COc1cc(CC(=O)Oc2ccc3[nH]cc(CCN)c3c2)cc(OC)c1OC [Compound 74, 5-(3,4,5-Trimethoxyphenylacetoxy)-tryptamine]	5
5-Methoxy-2-methyl-3-indoleacetamidoguanidine [Compound 103]	5
7-(3,5-Dichorophenylhydrazido)-7-acetyltheophylline [Compound 102]	3, 14, 16, 17 antagonist
17-(PGE1carbonyl)-17-cyproterone ester [Compound 154]	26 (Androgenic antagonist)
N-(PGE1carboxamido)-guanidine [Compound 151]	6–11 (anti-impotence)
4-(PGE2carbonylphenyl)-4-4′(1,2-diethyl-1,2-ethenediyl)-4-phenol [Compound 157]	27 (some agonist activity)

Same assay, conditions: codes of Table III; higher levels of activity

Compound	Specific Properties
COc1cc(CNC(=O)CNC(=N)N)ccc1O [Compound 104, N-(4-Hydroxy-3-methoxybenzyl)-guanidinoacetamide]	2 (Antispasticity and muscle relaxant)
CC/C(=C(\c1ccccc1)c1ccc(OC(=O)CNC(=N)N)cc1)c1ccccc1 [Compound 187, [Z]-2-[4-(1,2-Diphenyl-1-butenyl)-phenoxy]-guanidineacetate ester]	27, Progestin
CC(=O)[C@@]1(OC(=O)CNC(=N)N)CCC2C3C=C(C)C4=CC(=O)CCC4(C)C3CCC21C (stereo partly shown) [Compound 184, 17-(Guanidinoacetoxy)-megostrol]	27, Progestin, androgenic
N=C(N)c1ccc(C(=O)NC(=O)CCCCC2SCC3NC(=O)NC32)cc1 (stereo not shown) [Compound 233, N-(Hexahydro-2-oxo-1H-thieno[3,4-d]-imidazole-4-pentanoyl)-4-amidinobenzamide]	1, 2, 4, 6, 9, 10, 14, 15, 17, 23, 29 Antialopecia,
Guanidinamidocarbonyl-1-cholinepentanoic acid ester [Compound 167]	Adrenergic, cholinergic, 22, 23
CCCCCC(O)/C=C/C1C(O)CC(=O)[C@@H]1CCCCCCCC(=O)OCC(O)COC(=O)CCCCCCC[C@H]1C(=O)CC(O)C1/C=C/C(O)CCCCC (stereo partly shown) [Compound 170, 1,3-Di-PGE1-2-propanol-ester]	8, 9, 12, Vasodilator
Bis(3,17-PGE2carbonyl)-estradiole ester [Compound 158]	27 (Estrogenic antagonist (breast cancer treatment))
CC(=O)[C@@]1(OC(=O)CNC(=N)N)CCC2C3CCC4=CC(=O)CCC4(C)C3CCC21C (stereo partly shown) [Compound 186, 17-(Guanidinoacetoxy)-progesterone]	1927, Progestin, androgenic
N=C(N)c1ccc(OCCCCCOc2ccc(C(=N)N)cc2)cc1 [Compound 192, 4,4′-[Pentanediylbis(oxy)]bis-benzenecarboximidamide, reference compound]	1, 2, 8–10, 15, 29 Adrenergic antagonist
N=C(N)c1ccc(C(=O)NC(c2ccccc2)c2ccccc2)cc1 [Compound 223, N-(Diphenylmethyl)-4-(amidino)-Benzamide]	1, 2, 4, 6, 9, 10, 14, 15, 17, 23, 29 Adrenergic
Cl.Cn1c(=O)c2c(ncn2CC(=O)Nc2nc(N)nc(NC(=O)C[N+](C)(C)C)n2)n(C)c1=O [Compound 31, 2-(Amino)-4-(1-carboxamido-N,N,N-trimethylmethaniminium)-6-(theophylline-7-acetamido)-1,3,5-s-triazine]	2, 3, 15, cholinergic
Cc1c(C)c2c(c(C)c1O)CCC(C)(C(=O)Nc1ccc(C(=O)NNC(=N)N)cc1)O2 (stereo not shown) [Compound 135, 4-N-(G-Hydroxy-2,5,7,8-tetramethylchroman-2-carboxamido)-4-benzamidoguanidine]	9–15
CC/C(=C(/CC)c1ccc(OC(=O)C2(C)CCc3c(C)c(OC(=O)CNC(=N)N)c(C)c(C)c3O2)cc1)c1ccc(O)cc1 (stereo not shown) [Compound 128, 2-[4,4′-(1,2-Diethyl-1,2-ethenediyl)phenol]-6-(guanidinoacetoxy)-2,5,7,8-tetramethylchroman-2-carbonyl-2-phenol ester]	27 (Estrogenic antagonist (breast cancer treatment))
N=C(N)c1ccc(C(=O)NC(=O)Cc2c(Cl)cccc2Cl)cc1 [Compound 99, 4-(Amidino)-N-(2,6-dichlorophenylacetyl)-benzamide]	adrenergic antagonist
[H]/N=C(\N/C(=N/[H])Nc1ccc(Cl)cc1)NC(C)C [Compound 217, reference compound]	1, 4, 6–9, 16, 17, 19 antimalarial
N=C(N)NNC(=O)Cc1c[nH]c2ccc(O)cc12 [Compound 38, 5-Hydroxyindole-3-acetamidoguanidine]	5
COc1cc(N=Cc2ncc[nH]2)cc(OC)c1OC [Compound 98]	adrenergic antagonist
2-(3,4,5-Trimethoxybenzylidineamino)-2-methylbenzimidazole [Compound 100]	adrenergic antagonist
CC(C)c1cccc(C(C)C)c1C=NCC(=N)N [Compound 163, 2,6-Diisopropylbenzylideneaminomethylamidine]	14, 17, adrenergic antagonist, 22, 23
CC1(N=Cc2c(Cl)cccc2Cl)N=c2ccccc2=N1 [Compound 162, 2-(2,6-Dichlorobenzylideneamino)-2-methyl-benzimidazole]	14, 17 adrenergic antagonist, 22, 23
CC/C(=C(/CC)c1ccc(OC(=O)CNC(=N)N)cc1)c1ccc(OC(=O)CNC(=N)N)cc1 [Compound 127, 4,4′-(1,2-Diethyl-1,2-ethenediyl)bis-phenoldiguanidinoacetate ester]	27 (Estrogenic antagonist (breast cancer treatment))
